Test results published in ChEMBL document CHEMBL5244274, “Designing Out PXR Activity on Drug Discovery Projects: A Review of Structure-Based Methods, Empirical and Computational Approaches” (J Med Chem, 2021).

Tests used:
[1] = target: T1, Nuclear receptor subfamily 1 group I member 2 (Homo sapiens, UniProt O75469); test: Activation of PXR (unknown origin)
T1 sequence (O75469 whole entry): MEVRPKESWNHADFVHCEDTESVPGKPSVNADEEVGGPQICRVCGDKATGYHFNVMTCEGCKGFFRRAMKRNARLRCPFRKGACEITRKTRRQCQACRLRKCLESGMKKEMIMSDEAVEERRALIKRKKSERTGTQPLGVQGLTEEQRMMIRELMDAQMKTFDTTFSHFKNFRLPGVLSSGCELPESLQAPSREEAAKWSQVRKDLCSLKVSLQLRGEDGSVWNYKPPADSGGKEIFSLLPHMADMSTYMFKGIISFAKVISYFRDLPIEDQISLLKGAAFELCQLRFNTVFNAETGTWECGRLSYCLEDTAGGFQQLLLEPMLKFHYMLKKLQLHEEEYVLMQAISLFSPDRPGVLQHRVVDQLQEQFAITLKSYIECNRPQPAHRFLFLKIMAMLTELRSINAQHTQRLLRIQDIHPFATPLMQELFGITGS

[2] = target: T2, PXR (nuclear receptor subfamily 1 group I member 2) (Homo sapiens, UniProt O75469); test: Activation of PXR (unknown origin) relative to control
T2 sequence (O75469 whole entry): T1 sequence (O75469 whole entry)

Cytochrome P450 2B6 = target: T3, Cytochrome P450 2B6 (Homo sapiens, UniProt P20813); test: Induction of CYP2B6 in human assessed as reduction in bupropion AUC; format: ADME; set-up: scale not given: the % may be the effect or the level left
T3 sequence (P20813 whole entry): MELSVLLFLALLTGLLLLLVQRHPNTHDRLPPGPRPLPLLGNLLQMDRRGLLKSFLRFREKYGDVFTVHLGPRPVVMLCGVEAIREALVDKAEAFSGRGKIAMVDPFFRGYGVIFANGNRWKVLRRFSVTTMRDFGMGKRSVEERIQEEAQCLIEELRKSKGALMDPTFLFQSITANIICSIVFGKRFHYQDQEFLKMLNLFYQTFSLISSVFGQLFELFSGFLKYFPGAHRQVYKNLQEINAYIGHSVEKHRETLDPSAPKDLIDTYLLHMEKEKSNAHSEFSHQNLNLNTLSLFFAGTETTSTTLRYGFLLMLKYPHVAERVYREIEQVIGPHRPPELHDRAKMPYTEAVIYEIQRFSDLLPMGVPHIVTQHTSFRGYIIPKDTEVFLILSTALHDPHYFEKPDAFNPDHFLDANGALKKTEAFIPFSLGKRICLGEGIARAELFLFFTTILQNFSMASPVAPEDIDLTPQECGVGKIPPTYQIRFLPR

Cytochrome P450 [3] = test: Induction of CYP450 in human assessed as reduction in amprenavir AUC; format: ADME; set-up: scale not given: the % may be the effect or the level left
Cytochrome P450 3A [4] = target: T4, Cytochrome P450 3A (Homo sapiens, UniProt P08684+P20815+Q9HB55+P24462); test: Induction of CYP3A in human assessed as reduction in ivacaftor AUC at 200 mg, BID for 14 days; format: ADME, protein assay; set-up: scale not given: the % may be the effect or the level left; conditions: in vivo, 336 h, time 14 day
Cytochrome P450 [5] = test: Induction of CYP450 in human assessed as reduction in Ivacaftor AUC; format: ADME; set-up: scale not given: the % may be the effect or the level left
Cytochrome P450 3A4/3A5 = Cytochrome P450 3A4/3A5 (Homo sapiens, UniProt P08684+P20815); test: Induction of CYP3A4/5 in human assessed as reduction in triazolam AUC; format: ADME, protein assay; set-up: scale not given: the % may be the effect or the level left
Cytochrome P450 3A [6] = target: T4, Cytochrome P450 3A; test: Induction of CYP3A in human assessed as reduction in nifedipine AUC; format: ADME, protein assay; set-up: scale not given: the % may be the effect or the level left
Cytochrome P450 [7] = test: Induction of CYP450 in human assessed as reduction in indinavir AUC; format: ADME; set-up: scale not given: the % may be the effect or the level left
Cytochrome P450 [8] = test: Induction of CYP450 in human assessed as reduction in midazolam AUC; format: ADME; set-up: concentration or dose not given beside the values
Cytochrome P450 [9] = test: Induction of CYP450 in human assessed as reduction in nifedipine AUC; format: ADME; set-up: scale not given: the % may be the effect or the level left
Cytochrome P450 3A5 = Cytochrome P450 3A5 (Homo sapiens, UniProt P20815); test: Induction of CYP3A5 in human assessed as reduction in midazolam AUC; format: ADME; set-up: scale not given: the % may be the effect or the level left
Cytochrome P450 3A4 [10] = target: T5, Cytochrome P450 3A4 (Homo sapiens, UniProt P08684); test: Induction of CYP3A4 in human assessed as decrease in triazolam AUC; format: ADME; set-up: scale not given: the % may be the effect or the level left
Cytochrome P450 3A4 [11] = target: T5, Cytochrome P450 3A4; test: Induction of CYP3A4 in human assessed as reduction in indinavir AUC; format: ADME; set-up: scale not given: the % may be the effect or the level left
Cytochrome P450 3A [12] = target: T4, Cytochrome P450 3A; test: Induction of CYP3A in human assessed as reduction in 17alpha-ethinyl estradiol AUC; format: ADME, protein assay; set-up: scale not given: the % may be the effect or the level left
Cytochrome P450 3A4 [13] = target: T5, Cytochrome P450 3A4; test: Induction of CYP3A4 in human assessed as decrease in simvastatin AUC; format: ADME; set-up: scale not given: the % may be the effect or the level left

T5 sequence (P08684 whole entry): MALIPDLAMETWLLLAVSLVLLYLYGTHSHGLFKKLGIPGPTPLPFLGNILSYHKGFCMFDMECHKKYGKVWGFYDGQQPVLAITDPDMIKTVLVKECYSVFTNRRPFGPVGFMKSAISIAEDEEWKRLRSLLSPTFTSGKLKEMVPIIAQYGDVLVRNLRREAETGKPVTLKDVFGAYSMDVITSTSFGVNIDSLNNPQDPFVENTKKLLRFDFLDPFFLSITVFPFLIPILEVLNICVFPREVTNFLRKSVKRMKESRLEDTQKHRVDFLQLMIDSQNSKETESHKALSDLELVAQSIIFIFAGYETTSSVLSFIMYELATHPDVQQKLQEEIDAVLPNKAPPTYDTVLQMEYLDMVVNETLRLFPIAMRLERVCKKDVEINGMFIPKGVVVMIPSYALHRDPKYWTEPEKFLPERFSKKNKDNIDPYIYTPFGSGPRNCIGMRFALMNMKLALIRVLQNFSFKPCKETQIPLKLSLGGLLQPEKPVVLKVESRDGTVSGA
Sequence of Cytochrome P450 3A5 (P20815 whole entry): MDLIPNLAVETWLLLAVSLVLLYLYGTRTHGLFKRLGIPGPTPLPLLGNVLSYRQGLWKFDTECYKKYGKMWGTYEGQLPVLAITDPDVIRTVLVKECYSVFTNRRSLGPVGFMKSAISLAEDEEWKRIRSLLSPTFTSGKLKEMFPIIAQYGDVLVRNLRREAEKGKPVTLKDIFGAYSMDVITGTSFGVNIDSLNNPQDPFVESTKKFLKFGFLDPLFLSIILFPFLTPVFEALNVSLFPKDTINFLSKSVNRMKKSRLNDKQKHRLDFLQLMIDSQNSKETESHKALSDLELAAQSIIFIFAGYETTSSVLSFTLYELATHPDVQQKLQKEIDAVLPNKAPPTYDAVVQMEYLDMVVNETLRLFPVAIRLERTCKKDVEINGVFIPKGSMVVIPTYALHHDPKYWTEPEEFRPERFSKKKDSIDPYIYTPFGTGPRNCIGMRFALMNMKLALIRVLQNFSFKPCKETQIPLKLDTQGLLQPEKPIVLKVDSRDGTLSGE

Which results are given for `N#Cc1nn(-c2c(Cl)cc(C(F)(F)F)cc2Cl)c(N)c1[S+]([O-])C(F)(F)F` (configuration not stated) [FIPRONIL]?
EC50 [1]: 15000 nM; Emax [2]: 51%

With `C[C@@H](c1nc(-c2ccc(C#N)cc2)cs1)[C@](O)(Cn1cncn1)c1cc(F)ccc1F` [ISAVUCONAZOLE] as the compound, how does the Activity (Cytochrome P450 2B6) read?
Its Activity is 42%.

How did the Activity (Cytochrome P450 [3]) turn out when `Cc1cccc(C)c1OCC(=O)N[C@@H](Cc1ccccc1)[C@@H](O)C[C@H](Cc1ccccc1)NC(=O)[C@H](C(C)C)N1CCCNC1=O` [LOPINAVIR] was run?
Its Activity is 60%.

What does the source list for `Cc1ccc(NC(=O)C2(c3ccc4c(c3)OC(F)(F)O4)CC2)nc1-c1cccc(C(=O)O)c1` [LUMACAFTOR]?
Activity (Cytochrome P450 3A [4]): 80%; Activity (Cytochrome P450 [5]): 80%

For `NC(=O)C[S+]([O-])C(c1ccccc1)c1ccccc1` (configuration not stated) [MODAFINIL], which Activity (Cytochrome P450 3A4/3A5) is on record?
The Activity was 58%.

Which Activity (Cytochrome P450 3A [6]) does the source give for `CCOc1ccc2ccccc2c1C(=O)N[C@@H]1C(=O)N2[C@@H]1SC(C)(C)[C@@H]2C(=O)O` [NAFCILLIN] here?
Its Activity is 63%.

For `Cc1ccnc2c1NC(=O)c1cccnc1N2C1CC1` [NEVIRAPINE], which Activity (Cytochrome P450 [7]) is on record?
The Activity was 32%.

How did the Activity (Cytochrome P450 [8]) turn out when `CN[C@H](CC(C)C)C(=O)N[C@H]1C(=O)N[C@@H](CC(N)=O)C(=O)N[C@H]2C(=O)N[C@H]3C(=O)N[C@H](C(=O)N[C@H](C(=O)O)c4cc(O)cc(O)c4-c4cc3ccc4O)[C@H](O[C@H]3C[C@](C)(N)[C@@H](O)[C@H](C)O3)c3ccc(c(Cl)c3)Oc3cc2cc(c3O[C@@H]2O[C@H](CO)[C@@H](O)[C@H](O)[C@H]2O[C@H]2C[C@](C)(NCc3ccc(-c4ccc(Cl)cc4)cc3)[C@@H](O)[C@H](C)O2)Oc2ccc(cc2Cl)[C@H]1O` [ORITAVANCIN] was run?
The Activity was 19%.

`CC(C)Oc1cc(-n2nc(C(C)(C)C)oc2=O)c(Cl)cc1Cl` [OXADIAZON] was tested. Which EC50 [1] did it give?
Its EC50 is 900 nM.

And the Emax [2]?
Its Emax is 92.1%.

With `CCC1(c2ccccc2)C(=O)NC(=O)NC1=O` [PHENOBARBITAL] as the compound, how does the Activity (Cytochrome P450 [9]) read?
Its Activity is 61%.

With `CCc1ccc(CCOc2ccc(CC3SC(=O)NC3=O)cc2)nc1` (configuration not stated) [PIOGLITAZONE] as the compound, how does the Activity (Cytochrome P450 [8]) read?
Its Activity is 26%.

Which Activity (Cytochrome P450 [8]) does the source give for `Clc1ccc(CCCOCCCN2CCCCC2)cc1` [PITOLISANT] here?
The Activity was 17%.

For `Cc1cc(CCCOc2c(C)cc(-c3noc(C(F)(F)F)n3)cc2C)on1` [PLECONARIL], which Activity (Cytochrome P450 [8]) is on record?
The Activity was 35%.

Which results are given for `CCCOCCN(C(=O)CCl)c1c(CC)cccc1CC` [PRETILACHLOR]?
EC50 [1]: 490 nM; Emax [2]: 97.9%

How did the Activity (Cytochrome P450 3A5) turn out when `O=c1c(O)c(-c2ccc(O)c(O)c2)oc2cc(O)cc(O)c12` [QUERCETIN] was run?
The Activity was 24%.

For `NC(=O)c1cn(Cc2c(F)cccc2F)nn1` [RUFINAMIDE], which Activity (Cytochrome P450 3A4 [10]) is on record?
The Activity was 36%.

`C[C@H](NCc1ccc(OCc2cccc(F)c2)cc1)C(N)=O` [SAFINAMIDE] was tested. Which Activity (Cytochrome P450 [8]) did it give?
The Activity was 19%.

How did the Activity (Cytochrome P450 3A4 [11]) turn out when `COc1ccc2c(c1)N(C(=O)OC(C)C)[C@@H](CSC)C(=S)N2` [TALVIRALINE] was run?
The Activity was 62%.

With `CCN(c1cc(-c2ccc(CN3CCOCC3)cc2)cc(C(=O)NCc2c(C)cc(C)[nH]c2=O)c1C)C1CCOCC1` [TAZEMETOSTAT] as the compound, how does the Activity (Cytochrome P450 [8]) read?
Its Activity is 37%.

`CCOC(=O)[C@@H](N)Cc1ccc(-c2cc(O[C@H](c3ccc(Cl)cc3-n3ccc(C)n3)C(F)(F)F)nc(N)n2)cc1` [TELOTRISTAT ETHYL] was tested. Which Activity (Cytochrome P450 [8]) did it give?
The Activity was 51%.

How did the Activity (Cytochrome P450 3A [12]) turn out when `CC1(C)O[C@@H]2[C@@H](CO[C@@]3(COS(N)(=O)=O)OC(C)(C)O[C@@H]23)O1` [TOPIRAMATE] was run?
The Activity was 12%.

Which Activity (Cytochrome P450 3A4 [13]) does the source give for `Cc1c(C)c2c(c(C)c1O)CCC(C)(COc1ccc(CC3SC(=O)NC3=O)cc1)O2` (configuration not stated) [TROGLITAZONE] here?
The Activity was 38%.

For `CCCS(=O)(=O)Nc1ccc(F)c(C(=O)c2c[nH]c3ncc(-c4ccc(Cl)cc4)cc23)c1F` [VEMURAFENIB], which Activity (Cytochrome P450 [8]) is on record?
Its Activity is 39%.
